Laboratory results published in ChEMBL document CHEMBL1135262, “Noncovalent tripeptidic thrombin inhibitors incorporating amidrazone, amine and amidine functions at P1” (Bioorg Med Chem Lett, 2002).

How the values were obtained:
Serine protease 1 = target: T1, Serine protease 1 (Bos taurus, UniProt P00760); assay: Binding affinity against bovine trypsin
T1 sequence (P00760 whole entry): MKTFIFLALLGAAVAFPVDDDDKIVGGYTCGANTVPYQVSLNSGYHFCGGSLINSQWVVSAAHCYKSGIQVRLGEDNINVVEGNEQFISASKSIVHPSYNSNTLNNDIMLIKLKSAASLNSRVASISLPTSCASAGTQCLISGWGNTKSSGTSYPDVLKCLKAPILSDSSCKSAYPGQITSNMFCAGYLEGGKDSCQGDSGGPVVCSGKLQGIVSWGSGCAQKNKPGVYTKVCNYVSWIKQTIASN

[1] = Compound was evaluated for its pharmacokinetic parameter maximum area under curve AUCmax; assay type: ADME, organism-based; parameters: time AUCmax; settings: rat, in vivo
[2] = Compound was evaluated for its pharmacokinetic parameter maximum plasma concentration (Cmax) after oral administration to rats; assay type: ADME, organism-based; parameters: route oral; settings: rat
Coagulation factor X [3] = target: T2, Coagulation factor X (Homo sapiens, UniProt P00742); assay: Binding affinity for human Coagulation factor Xa; Inactive
T2 sequence (P00742 41-179 limits assumed): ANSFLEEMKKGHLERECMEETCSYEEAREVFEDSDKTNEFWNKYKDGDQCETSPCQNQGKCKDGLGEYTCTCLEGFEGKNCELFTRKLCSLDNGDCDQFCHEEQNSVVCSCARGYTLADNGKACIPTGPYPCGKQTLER
T2 sequence (P00742 235-488 limits assumed): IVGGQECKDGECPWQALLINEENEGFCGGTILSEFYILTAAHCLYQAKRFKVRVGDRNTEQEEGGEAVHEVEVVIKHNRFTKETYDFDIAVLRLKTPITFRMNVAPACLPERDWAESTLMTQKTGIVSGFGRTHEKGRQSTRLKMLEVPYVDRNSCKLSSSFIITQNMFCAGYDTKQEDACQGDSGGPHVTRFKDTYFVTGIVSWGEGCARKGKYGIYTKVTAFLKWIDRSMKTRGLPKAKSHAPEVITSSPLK

Prothrombin = Prothrombin (Homo sapiens, UniProt P00734); assay: Binding affinity against human thrombin
Coagulation factor X [4] = target: T2, Coagulation factor X; assay: Compound was evaluated for the binding affinity against human Coagulation factor Xa
Rattus norvegicus [5] = assay: Compound at a dose 5 mg/kg was administered intravenously and evaluated for its ability to inhibit thrombus formation in rat model of venous thrombosis; value ranges from 30-67%; assay type: functional; settings: route intravenous
Rattus norvegicus [6] = assay: Compound was evaluated for its ability to inhibit thrombus formation in rat model of venous thrombosis at a dose 0.5 mg/kg; settings: read-out: Inhibition
Rattus norvegicus [7] = assay: Compound was evaluated for its ability to inhibit thrombus formation in rat model of venous thrombosis at a dose 1 mg/kg; settings: read-out: Inhibition
Rattus norvegicus [8] = species: Rattus norvegicus; assay: animal or person; settings: iv, read-out: Inhibition
Rattus norvegicus [9] = assay: Compound at a dose 1 mg/kg was administered intravenously and evaluated for its ability to inhibit thrombus formation in rat model of venous thrombosis; assay type: functional; settings: route intravenous
Rattus norvegicus [10] = assay: Compound (dose 5 mg/kg) was administered intravenously and evaluated for its ability to inhibit thrombus formation in rat model of venous thrombosis; value ranges from 30-67%; assay type: functional; settings: route intravenous

| Compound | Ki (Serine protease 1) [nM] | Ki (Coagulation factor X [3]) | Ki (Prothrombin) [nM] | AUC [1] [µg·h/mL] | Cmax [2] [ng/mL] | further results |
| --- | --- | --- | --- | --- | --- | --- |
| N=C(N)c1ccc(CNC(=O)[C@@H]2CCCN2C(=O)[C@H](N)C(c2ccccc2)c2ccccc2)cc1.O=C(O)C(F)(F)F | 2.5 | – | – | 107 | 1400 | – |
| CS(=O)(=O)N[C@H](CC1CCCCC1)C(=O)N1CCC[C@H]1C(=O)NCc1ccc(C(=N)N)cc1 | 1.3 | – | 0.02 | – | – | Ki (Coagulation factor X [4]): 200 nM |
| COC(=O)N[C@@H](C(=O)N1CCC[C@H]1C(=O)NCC#Cc1c[nH]cn1)C(c1ccccc1)c1ccccc1 | 24000 | – | – | – | – | – |
| N=C(N)c1ccc(CNC(=O)[C@@H]2CCCN2C(=O)[C@H](NS(=O)(=O)NC2CCCCC2)C(c2ccccc2)c2ccccc2)cc1.O=C(O)C(F)(F)F | 0.25 | – | 0.003 | – | < 300 | – |
| N=C(N)c1ccc(CNC(=O)[C@@H]2CCCN2C(=O)[C@H](NS(N)(=O)=O)C(c2ccccc2)c2ccccc2)cc1.O=C(O)C(F)(F)F | 0.3 | – | 0.003 | 272 | 2800 | inhibition in vivo at 0.5 mg/kg (Rattus norvegicus [6]): 80%; inhibition in vivo at 1 mg/kg (Rattus norvegicus [7]): 100% |
| CS(=O)(=O)N[C@@H](C(=O)N1CCC[C@H]1C(=O)NCc1ccc(C(=N)N)cc1)C1CCCCC1 | 9.9 | – | 0.5 | – | – | Ki (Coagulation factor X [4]): 5000 nM |
| CS(=O)(=O)N[C@H](Cc1ccc(Cl)c(Cl)c1)C(=O)N1CCC[C@H]1C(=O)NCc1ccc(C(=N)N)cc1 | 0.8 | – | 0.05 | – | – | Ki (Coagulation factor X [4]): 120 nM |
| CS(=O)(=O)N[C@@H](C(=O)N1CCC[C@H]1C(=O)NCc1cc(C(N)=NN)cs1)C(c1ccccc1)c1ccccc1 | 250 | – | 2.2 | – | – | Ki (Coagulation factor X [4]): 59000 nM |
| COP(=O)(N[C@@H](C(=O)N1CCC[C@H]1C(=O)NCc1ccc(C(=N)N)cc1)C(c1ccccc1)c1ccccc1)OC.O=C(O)C(F)(F)F | 2.9 | – | 0.044 | 271 | 4000 | – |
| N=C(N)c1ccc(CNC(=O)[C@@H]2CCCN2C(=O)[C@H](NS(=O)(=O)Cc2ccccc2)C(c2ccccc2)c2ccccc2)cc1.O=C(O)C(F)(F)F | 0.58 | – | 0.005 | 68 | 900 | – |
| CC(=O)N[C@@H](C(=O)N1CCC[C@H]1C(=O)NCc1ccc(C(=N)N)cc1)C(c1ccccc1)c1ccccc1.O=C(O)C(F)(F)F | – | – | 0.16 | 244 | 3000 | – |
| N=C(N)c1ccc(CNC(=O)[C@@H]2CCCN2C(=O)[C@H](Nc2ccccc2)C(c2ccccc2)c2ccccc2)cc1.O=C(O)C(F)(F)F | 1.5 | – | – | 53 | 300 | – |
| N=C(N)c1ccc(CNC(=O)[C@@H]2CCCN2C(=O)[C@H](NS(=O)(=O)O)C(c2ccccc2)c2ccccc2)cc1.O=C(O)C(F)(F)F | 4.4 | – | 0.1 | 35 | 550 | – |
| Cc1cc(CNC(=O)[C@@H]2CCCN2C(=O)[C@H](NS(C)(=O)=O)C(c2ccccc2)c2ccccc2)ccc1CN | 110 | Not Active | 32 | – | – | – |
| CS(=O)(=O)N[C@@H](C(=O)N1CCC[C@H]1C(=O)NCc1csc(C(=N)NN)c1)C(c1ccccc1)c1ccccc1 | 540 | Not Active | 1.8 | – | – | – |
| N=C(N)c1ccc(CNC(=O)[C@@H]2CCCN2C(=O)[C@H](NCC(=O)O)C(c2ccccc2)c2ccccc2)cc1.O=C(O)C(F)(F)F | 3 | – | 0.015 | 120 | 1300 | – |
| COC(=O)N[C@@H](C(=O)N1CCC[C@H]1C(=O)NCc1ccc(C(=N)N)cc1)C(c1ccccc1)c1ccccc1.O=C(O)C(F)(F)F | 0.31 | – | 0.036 | 594 | 3900 | – |

More lines, main results first:

| Ki (Serine protease 1) [nM] | Ki (Coagulation factor X [3]) | Ki (Prothrombin) [nM] | Compound | AUC [1] [µg·h/mL] | Cmax [2] [ng/mL] | further results |
| --- | --- | --- | --- | --- | --- | --- |
| 150 | Not Active | 47 | CS(=O)(=O)N[C@@H](C(=O)N1CCC[C@H]1C(=O)NCc1ccc(C(=N)NN)cc1)C(c1ccccc1)c1ccccc1 | – | – | – |
| 85 | Not Active | – | CS(=O)(=O)N[C@@H](C(=O)N1CCC[C@H]1C(=O)NCc1ccc(CN)s1)C(c1ccccc1)c1ccccc1 | – | – | inhibition in vivo at 5 mg/kg (Rattus norvegicus [5]): 30% |
| 0.6 | – | 0.005 | CS(=O)(=O)N[C@@H](C(=O)N1CCC[C@H]1C(=O)NCc1ccc(C(=N)N)s1)C(c1ccccc1)c1ccccc1 | – | – | Ki (Coagulation factor X [4]): 360 nM |
| 606 | – | – | CS(=O)(=O)N[C@@H](C(=O)N1CCC[C@H]1C(=O)NCc1csc(CN)c1)C(c1ccccc1)c1ccccc1 | – | – | inhibition in vivo at 5 mg/kg (Rattus norvegicus [8]): 30%; Ki (Coagulation factor X [4]): 100000 nM |
| 11 | Not Active | 12 | CS(=O)(=O)N[C@@H](C(=O)N1CCC[C@H]1C(=O)NCc1ccc(CN)c(N)c1)C(c1ccccc1)c1ccccc1 | – | – | – |
| 0.7 | – | 0.003 | CS(=O)(=O)N[C@@H](C(=O)N1CCC[C@H]1C(=O)NCc1ccc(C(=N)N)cc1)C(c1ccccc1)c1ccccc1 | 263 | 2700 | Ki (Coagulation factor X [4]): 300 nM; inhibition in vivo at 1 mg/kg (Rattus norvegicus [9]): 70% |
| 9.9 | Not Active | 4 | CS(=O)(=O)N[C@@H](C(=O)N1CCC[C@H]1C(=O)NCc1ccc(CN)cc1)C(c1ccccc1)c1ccccc1 | – | – | inhibition in vivo at 5 mg/kg (Rattus norvegicus [8]): 30% |
| – | Not Active | – | CC(C)(C)OC(=O)N[C@@H](C(=O)N1CCC[C@H]1C(=O)NCc1ccc(C(=N)NN)s1)C(c1ccccc1)c1ccccc1 | – | – | – |
| 220 | Not Active | 6 | CS(=O)(=O)N[C@@H](C(=O)N1CCC[C@H]1C(=O)NCc1ccc(CN)nc1)C(c1ccccc1)c1ccccc1 | – | – | inhibition in vivo at 5 mg/kg (Rattus norvegicus [8]): 30% |
| – | Not Active | 105 | CC(=O)N[C@@H](C(=O)N1CCC[C@H]1C(=O)NCc1ccc(C(=N)NN)s1)C(c1ccccc1)c1ccccc1 | – | – | – |
| 1100 | Not Active | 31 | N=C(NN)c1ccc(CNC(=O)[C@@H]2CCCN2C(=O)[C@H](NCC(=O)O)C(c2ccccc2)c2ccccc2)s1 | – | – | – |
| 12 | – | – | CS(=O)(=O)N[C@@H](C(=O)N1CCC[C@H]1C(=O)NCc1ccc(/C(N)=N/N)s1)C(c1ccccc1)c1ccccc1 | – | – | Ki (Coagulation factor X [4]): 193 nM |
| 68 | Not Active | 2.4 | CS(=O)(=O)N[C@@H](C(=O)N1CCC[C@H]1C(=O)NCc1cc(CN)cs1)C(c1ccccc1)c1ccccc1 | – | – | inhibition in vivo at 5 mg/kg (Rattus norvegicus [10]): 30% |
